From patent US20250114356A1, “INDAZOLE BASED COMPOUNDS AND ASSOCIATED METHODS OF USE” (Arvinas Operations, Inc., priority 2020, published 2025)

How the values were obtained:
[1] = target: T1, wildtype LRRK2 (Homo sapiens, UniProt Q5S007); experiment: LRRK2 degradation assay, wildtype LRRK2-HiBit expressed from plasmid in HEK293 cells; format: cell-based; conditions: HEK293 cells transfected with HiBit-tagged wildtype LRRK2, 24 hours compound incubation; for Dmax: read-out: **WT Dmax (%); for DC50: read-out: *WT DC50
T1 construct: expressed in transfected cells; host or cells: HEK293 (ATCC CRL-1573), transient transfection, ubiquitin promoter
Protocol: (§1) The assay measures the degradation of wildtype and G2019S LRRK2 tagged with a HiBit tag on the C-terminus of the protein that was expressed from a mammalian expression vector, driven by the ubiquitin promoter in HEK293 cells. Each compound dose-response was repeated on two separate days, on three separate plates each day.
(§2) Plasmid Preparation. Transfection mixes were assembled as follows and incubated for 30 minutes at room temperature. In a 15 mL tube, 5.25 mL Opti-MEM (no additions) was mixed with 17 μL Firefly Luciferase plasmid at 1 μg/μL and 158 μL WT plasmid DNA at 1 μg/μL (175 μg total DNA) were mixed by flicking. In a new 15 mL tube, 5.25 mL OptiMEM was mixed with 17 μL Firefly Luciferase plasmid at 1 μg/μL and 158 μL G2019S plasmid DNA at 1 μg/μL (175 μg total DNA) were mixed by flicking. X-tremeGene HP was mixed thoroughly using a vortex. Next, 175 μL was added to each tube and flicked to mix. Both tubes were left to incubate for 30 minutes at room temperature.
(§3) While the transfection mixes were incubating, HEK293 cells (acquired from ATCC; ATCC CRL-1573) were harvested with trypsin. Once cells are detached, the cells were resuspended in 12 mL OptiMEM+5% FBS and transferred to a 50 mL tube. The cells were mixed well and counted. Using OptiMEM+5% FBS, the cells were diluted in two 250 mL conical tubes at 0.71×10^6 cells/mL in 70 mL. One tube was labeled “WT” and the other “G2019S”. The WT and G2019S transfection mixes were added dropwise to the corresponding 250 mL tubes. The tubes were mixed first by pipetting then by swirling. The tubes were incubated at room temperature for at least 5 minutes.
(§4) Each tube was swirled before dispensing and after every three plates. Seventy microliters of cells were dispensed with WT or G2019S DNA to seven plates each. Three plates of each were tested with compound plate one (preparation described below) and three plates of each were tested with compound plate two (preparation described below). The first plate from each set served as a “prime” plate and was not used to test compounds. Each plate was incubated in the hood for 10 minutes before placing in the 37° C. incubator for 24 hours.
(§5) Preparation of Compound and Assay Plates. Two compound plates were made using 96 well polypropylene plates. Compounds were made up at 10 mM and were diluted to 1 mM in 30 μL. Each dose response curve included a well of DMSO, as a negative control and for normalization, and a well of 0.5 μM of Exemplary Compound 4 as a positive control. In addition to seven test compounds, each plate also included a dose response of Exemplary Compound 4. The compound plates were spun down along at 1200 rpm for 2 minutes.
(§6) The two compound plates were then mixed and 2 μL was diluted in intermediate plates having 248 μL of Opti-Mem in each well. Next, 10 μL diluted compounds from the intermediate plates were added to each test plate (three WT and three G2019S plates per compound plate for a total of 12 assay plates). The plates were incubated for 24 hours at 37° C.
(§7) All assay plates and all Nano-Glo Dual-Luciferase Reporter Assay System components (except for the DLR substrate) were equilibrated to room temperature. Next, the luciferase buffer was mixed with the lyophilized amber bottle until fully dissolved, and 75 μL of the luciferase mixture was added to each well of each assay plate. The assay plates were incubated for 10 minutes at room temperature with shaking for at least 5 minutes, and then read on a plate reader.
(§8) Developing Plates and Analyzing Data. One milliliter of DLR substrate and 1 mL LgBiT Protein were added to the Stop and Glo buffer, and 75 μL of the mixture was added to each well of each plate. Optically clear seals were added to each plate and each plate was incubated for 20 minutes with shaking for at least 10 minutes, and then read on a plate reader. […]

[2] = target: T2, G2019S LRRK2 (Homo sapiens, UniProt Q5S007, G2019S); experiment: LRRK2 degradation assay, G2019S LRRK2-HiBit expressed from plasmid in HEK293 cells; format: cell-based; conditions: HEK293 cells transfected with HiBit-tagged G2019S LRRK2, 24 hours compound incubation
T2 construct: expressed in transfected cells; host or cells: HEK293 (ATCC CRL-1573), transient transfection, ubiquitin promoter
Protocol: as §1, §2, §3, §4, §5, §6, §7, §8

T1 sequence (Q5S007 whole entry): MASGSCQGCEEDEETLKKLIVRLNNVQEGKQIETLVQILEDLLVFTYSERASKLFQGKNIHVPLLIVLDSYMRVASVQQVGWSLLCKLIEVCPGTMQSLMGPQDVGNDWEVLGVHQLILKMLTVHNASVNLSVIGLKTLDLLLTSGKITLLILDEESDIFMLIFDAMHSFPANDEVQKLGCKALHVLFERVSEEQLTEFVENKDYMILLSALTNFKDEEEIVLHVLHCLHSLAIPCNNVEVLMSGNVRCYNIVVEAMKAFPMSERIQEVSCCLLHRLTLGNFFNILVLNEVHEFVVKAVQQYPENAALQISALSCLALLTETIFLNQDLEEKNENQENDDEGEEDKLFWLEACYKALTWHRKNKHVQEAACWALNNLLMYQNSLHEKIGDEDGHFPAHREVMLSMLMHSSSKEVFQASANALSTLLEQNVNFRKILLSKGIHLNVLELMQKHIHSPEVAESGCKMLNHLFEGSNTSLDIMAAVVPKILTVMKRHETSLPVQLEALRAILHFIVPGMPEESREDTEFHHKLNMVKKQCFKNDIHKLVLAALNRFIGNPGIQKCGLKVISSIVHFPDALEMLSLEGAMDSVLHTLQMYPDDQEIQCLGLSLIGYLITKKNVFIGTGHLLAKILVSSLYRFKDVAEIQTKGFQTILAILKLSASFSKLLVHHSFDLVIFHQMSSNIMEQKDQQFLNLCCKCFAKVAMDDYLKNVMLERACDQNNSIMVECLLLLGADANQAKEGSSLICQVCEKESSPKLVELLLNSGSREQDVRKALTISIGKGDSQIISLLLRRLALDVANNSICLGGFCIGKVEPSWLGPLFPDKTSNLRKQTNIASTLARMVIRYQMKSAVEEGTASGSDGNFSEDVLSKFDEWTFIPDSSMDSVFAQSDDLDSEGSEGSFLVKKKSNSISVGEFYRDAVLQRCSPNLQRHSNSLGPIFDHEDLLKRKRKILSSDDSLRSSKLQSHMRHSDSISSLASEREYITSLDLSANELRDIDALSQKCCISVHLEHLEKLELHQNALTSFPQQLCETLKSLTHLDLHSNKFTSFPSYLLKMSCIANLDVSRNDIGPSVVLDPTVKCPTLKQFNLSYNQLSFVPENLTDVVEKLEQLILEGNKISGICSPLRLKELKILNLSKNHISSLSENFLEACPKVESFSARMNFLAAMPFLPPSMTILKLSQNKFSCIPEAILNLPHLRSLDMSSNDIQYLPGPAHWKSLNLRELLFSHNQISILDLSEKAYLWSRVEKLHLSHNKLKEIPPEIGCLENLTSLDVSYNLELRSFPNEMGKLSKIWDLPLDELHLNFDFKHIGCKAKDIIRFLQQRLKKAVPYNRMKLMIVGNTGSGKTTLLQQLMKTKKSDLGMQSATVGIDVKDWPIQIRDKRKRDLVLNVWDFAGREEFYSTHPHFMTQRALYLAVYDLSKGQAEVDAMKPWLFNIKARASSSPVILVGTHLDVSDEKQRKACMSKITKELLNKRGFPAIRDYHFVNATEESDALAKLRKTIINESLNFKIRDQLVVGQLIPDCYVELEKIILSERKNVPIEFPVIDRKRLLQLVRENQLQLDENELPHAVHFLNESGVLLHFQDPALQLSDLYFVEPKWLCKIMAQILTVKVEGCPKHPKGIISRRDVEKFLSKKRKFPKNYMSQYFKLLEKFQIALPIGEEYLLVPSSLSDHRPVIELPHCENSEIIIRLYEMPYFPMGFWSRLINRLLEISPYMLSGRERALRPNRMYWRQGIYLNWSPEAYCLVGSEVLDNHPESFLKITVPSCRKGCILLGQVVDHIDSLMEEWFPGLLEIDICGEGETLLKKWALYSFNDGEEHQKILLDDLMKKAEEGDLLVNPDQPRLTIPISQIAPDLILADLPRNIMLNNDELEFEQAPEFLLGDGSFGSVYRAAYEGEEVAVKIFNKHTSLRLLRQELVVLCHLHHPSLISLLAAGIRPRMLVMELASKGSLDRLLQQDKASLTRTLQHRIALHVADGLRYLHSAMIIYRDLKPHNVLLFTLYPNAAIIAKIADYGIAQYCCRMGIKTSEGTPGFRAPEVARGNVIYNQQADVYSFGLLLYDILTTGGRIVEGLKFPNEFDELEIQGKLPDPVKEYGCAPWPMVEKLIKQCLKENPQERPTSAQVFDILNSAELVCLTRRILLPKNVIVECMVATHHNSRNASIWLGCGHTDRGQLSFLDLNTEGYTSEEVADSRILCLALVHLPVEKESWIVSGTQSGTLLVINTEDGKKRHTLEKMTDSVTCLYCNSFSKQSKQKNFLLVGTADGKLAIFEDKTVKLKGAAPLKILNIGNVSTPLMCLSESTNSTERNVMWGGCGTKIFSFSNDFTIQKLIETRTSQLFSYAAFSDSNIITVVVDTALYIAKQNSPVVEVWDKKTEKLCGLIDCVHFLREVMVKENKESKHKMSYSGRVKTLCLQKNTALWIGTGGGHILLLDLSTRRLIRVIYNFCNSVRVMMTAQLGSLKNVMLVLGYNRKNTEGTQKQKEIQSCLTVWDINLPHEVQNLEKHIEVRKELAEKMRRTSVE
T2 sequence (Q5S007 whole entry G2019S): as the sequence (Q5S007 whole entry) above, with G2019S counted along it

Row | SMILES | Dmax [1] | DC50 [1] | DC50 [2] | Dmax [2]
1 | CC(C)Oc1ccc2[nH]nc(-c3cc(N4CCN(CCN5CC(OCCOc6ccc7c(c6)C(=O)N(C6CCC(=O)NC6=O)C7=O)C5)[C@@H](C)C4)ncn3)c2c1 (stereo partly drawn) [compound 32, 2-(2,6-dioxopiperidin-3-yl)-5-{2-[(1-{2-[(2S)-2-methyl-4-{6-[5-(propan-2-yloxy)-1H-indazol-3-yl]pyrimidin-4-yl}piperazin-1-yl]ethyl}azetidin-3-yl)oxy]ethoxy}-2,3-dihydro-1H-isoindole-1,3-dione] | < 50% | ≥ 100 nM | ≥ 100 nM | < 50%
2 | CC(C)Oc1ccc2[nH]nc(-c3cc(N4CCN(CCOCCC#CCN5CCN(c6ccc7c(c6)C(=O)N(C6CCC(=O)NC6=O)C7=O)CC5)[C@@H](C)C4)ncn3)c2c1 (stereo partly drawn) [compound 34, 2-(2,6-dioxopiperidin-3-yl)-5-[4-(5-{2-[(2S)-2-methyl-4-{6-[5-(propan-2-yloxy)-1H-indazol-3-yl]pyrimidin-4-yl}piperazin-1-yl]ethoxy}pent-2-yn-1-yl)piperazin-1-yl]-2,3-dihydro-1H-isoindole-1,3-dione] | ≥ 70% | 50 to 100 nM | ≥ 100 nM | 50 to 70%
3 | CC(C)Oc1ccc2[nH]nc(-c3cc(N4CCN(CCN5CC6(CN(CCOc7ccc8c(c7)C(=O)N(C7CCC(=O)NC7=O)C8=O)C6)C5)[C@@H](C)C4)ncn3)c2c1 (stereo partly drawn) [compound 35, 2-(2,6-dioxopiperidin-3-yl)-5-[2-(6-{2-[(2S)-2-methyl-4-{6-[5-(propan-2-yloxy)-1H-indazol-3-yl]pyrimidin-4-yl}piperazin-1-yl]ethyl}-2,6-diazaspiro[3.3]heptan-2-yl)ethoxy]-2,3-dihydro-1H-isoindole-1,3-dione] | < 50% | 50 to 100 nM | 50 to 100 nM | < 50%
4 | CC(C)Oc1ccc2[nH]nc(-c3cc(N4CCN(CCN(C)CCCN5CCN(c6ccc7c(c6)C(=O)N(C6CCC(=O)NC6=O)C7=O)CC5)[C@@H](C)C4)ncn3)c2c1 (stereo partly drawn) [compound 36, 2-(2,6-dioxopiperidin-3-yl)-5-(4-{3-[methyl({2-[(2S)-2-methyl-4-{6-[5-(propan-2-yloxy)-1H-indazol-3-yl]pyrimidin-4-yl}piperazin-1-yl]ethyl})amino]propyl}piperazin-1-yl)-2,3-dihydro-1H-isoindole-1,3-dione] | ≥ 70% | 10 to 50 nM | 10 to 50 nM | ≥ 70%
5 | CC(C)Oc1ccc2[nH]nc(-c3cc(N4CCN(CCN(C)CCN5CCN(c6ccc7c(c6)C(=O)N(C6CCC(=O)NC6=O)C7=O)CC5)[C@@H](C)C4)ncn3)c2c1 (stereo partly drawn) [compound 37, 2-(2,6-dioxopiperidin-3-yl)-5-(4-{2-[methyl({2-[(2S)-2-methyl-4-{6-[5-(propan-2-yloxy)-1H-indazol-3-yl]pyrimidin-4-yl}piperazin-1-yl]ethyl})amino]ethyl}piperazin-1-yl)-2,3-dihydro-1H-isoindole-1,3-dione] | 50 to 70% | ≥ 100 nM | 50 to 100 nM | 50 to 70%
6 | CC(C)Oc1ccc2[nH]nc(-c3cc(N4CCN(CCCN(C)CCCN5CCN(c6ccc7c(c6)C(=O)N(C6CCC(=O)NC6=O)C7=O)CC5)[C@@H](C)C4)ncn3)c2c1 (stereo partly drawn) [compound 38, 2-(2,6-dioxopiperidin-3-yl)-5-(4-{3-[methyl({3-[(2S)-2-methyl-4-{6-[5-(propan-2-yloxy)-1H-indazol-3-yl]pyrimidin-4-yl}piperazin-1-yl]propyl})amino]propyl}piperazin-1-yl)-2,3-dihydro-1H-isoindole-1,3-dione] | ≥ 70% | 50 to 100 nM | ≥ 100 nM | ≥ 70%

Results, then the compound that gave them:

Row | Dmax [1] | DC50 [1] | DC50 [2] | Dmax [2] | SMILES
7 | ≥ 70% | < 10 nM | < 10 nM | ≥ 70% | CC1(Oc2ccc3[nH]nc(-c4cc(N5CCN(CCN6CCC(CN7CCN(c8ccc9c(c8)C(=O)N(C8CCC(=O)NC8=O)C9=O)CC7)CC6)CC5)ncn4)c3c2)CC1 (stereo not drawn) [compound 28, 2-(2,6-dioxopiperidin-3-yl)-5-[4-({1-[2-(4-{6-[5-(1-methylcyclopropoxy)-1H-indazol-3-yl]pyrimidin-4-yl}piperazin-1-yl)ethyl]piperidin-4-yl}methyl)piperazin-1-yl]-2,3-dihydro-1H-isoindole-1,3-dione]
8 | ≥ 70% | < 10 nM | < 10 nM | ≥ 70% | C[C@H]1CN(c2cc(-c3n[nH]c4ccc(OC5(C)CC5)cc34)ncn2)CCN1CCN1CCC(CN2CCN(c3ccc4c(c3)C(=O)N(C3CCC(=O)NC3=O)C4=O)CC2)CC1 (stereo partly drawn) [compound 29, 2-(2,6-dioxopiperidin-3-yl)-5-{4-[(1-{2-[(2S)-2-methyl-4-{6-[5-(1-methylcyclopropoxy)-1H-indazol-3-yl]pyrimidin-4-yl}piperazin-1-yl]ethyl}piperidin-4-yl)methyl]piperazin-1-yl}-2,3-dihydro-1H-isoindole-1,3-dione]
9 | ≥ 70% | < 10 nM | < 10 nM | ≥ 70% | CC(C)Oc1ccc2[nH]nc(-c3cc(N4CCN(CCN5CCC(CN6CCN(c7ccc8c(c7)C(=O)N(C7CCC(=O)NC7=O)C8=O)CC6)CC5)[C@@H](C)C4)ncn3)c2c1 (stereo partly drawn) [compound 30, 2-(2,6-dioxopiperidin-3-yl)-5-{4-[(1-{2-[(2S)-2-methyl-4-{6-[5-(propan-2-yloxy)-1H-indazol-3-yl]pyrimidin-4-yl}piperazin-1-yl]ethyl}piperidin-4-yl)methyl]piperazin-1-yl}-2,3-dihydro-1H-isoindole-1,3-dione]
10 | ≥ 70% | < 10 nM | 10 to 50 nM | ≥ 70% | CC(C)Oc1ccc2[nH]nc(-c3cc(N4CCN(CCN5CCC(CN6CCN(c7ccc8c(c7)CN(C7CCC(=O)NC7=O)C8=O)CC6)CC5)[C@@H](C)C4)ncn3)c2c1 (stereo partly drawn) [compound 31, 3-(5-{4-[(1-{2-[(2S)-2-methyl-4-{6-[5-(propan-2-yloxy)-1H-indazol-3-yl]pyrimidin-4-yl}piperazin-1-yl]ethyl}piperidin-4-yl)methyl]piperazin-1-yl}-1-oxo-2,3-dihydro-1H-isoindol-2-yl)piperidine-2,6-dione]
11 | ≥ 70% | 10 to 50 nM | < 10 nM | ≥ 70% | C[C@H]1CN(c2cc(-c3n[nH]c4ccc(OC5(C)CC5)cc34)ncn2)CCN1CCOC1CCN(CC2CCN(c3ccc4c(c3)C(=O)N(C3CCC(=O)NC3=O)C4=O)CC2)CC1 (stereo partly drawn) [compound 33, 2-(2,6-dioxopiperidin-3-yl)-5-{4-[(4-{2-[(2S)-2-methyl-4-{6-[5-(1-methylcyclopropoxy)-1H-indazol-3-yl]pyrimidin-4-yl}piperazin-1-yl]ethoxy}piperidin-1-yl)methyl]piperidin-1-yl}-2,3-dihydro-1H-isoindole-1,3-dione]
12 | ≥ 70% | < 10 nM | 10 to 50 nM | ≥ 70% | CC(C)Oc1ccc2[nH]nc(-c3cc(N4CCN(CCN5CCN(CC6CCN(c7ccc8c(c7)C(=O)N(C7CCC(=O)NC7=O)C8=O)CC6)CC5)CC4)ncn3)c2c1 (stereo not drawn) [compound 39, 2-(2,6-dioxopiperidin-3-yl)-5-(4-((4-(2-(4-(6-(5-isopropoxy-1H-indazol-3-yl)pyrimidin-4-yl)piperazin-1-yl)ethyl)piperazin-1-yl)methyl)piperidin-1-yl)isoindoline-1,3-dione]
